Measurements taken from patent publication US7951232B2, “Surface coating compositions and methods” (Elevance Renewable Sciences, Inc., priority 2006, dated 2011).
Read-outs that look alike come from different tables or passages of the source.

Columns and labels:
[1] = tested on: Escherichia coli, ATCC 11229; test: Time-Kill Procedure (ASTM) at pH 7; format: cell-based
Experimental: The rate of kill for these organisms upon exposure to 9-decenoic acid was determined using the American Society for Testing and Materials (ASTM) procedure entitled “Standard Test Method for the Assessment of Microbiocidal Activity of Test Materials Using a Time-Kill Procedure”, October 1998. This procedure incorporates the recommendations described in the “Manual of Clinical Microbiology,”5th ed., edited by A. B. Balows et al., ASM, Washington, and is directed by the Federal Register, June 1994.
Stock cultures were transferred into TSB and incubated for 18-24 hours at 37±2° C. A second transfer was made onto TSA plates and were incubated for 18-24 hours at 37±2° C. The plates were removed from incubation and the bacterial growth washed from the agar surface using Butterfield's Phosphate Buffered Dilution Water (PBDW). The bacterial suspension was adjusted to contain approximately 10^8 Colony Forming Units (CFU)/ml with PBDW using spectrophometric methods extant in the laboratory.
The concentrated 9-decenoic acid was diluted 1:40 in filter sterilized isopropanol to yield a 2.5% stock solution. Subsequent dilutions to the 9-decenoic acid stock solutions were made with sterile Deionized Water (DI) to achieve concentrations of 0.1%, 0.05%, 0.01%, and 0.001%. The pH was determined for each dilution; pH values ranged from 4.4-4.1. Additionally, the 9-decenoic acid stock solution was adjusted to pH 7 with 1 N NaOH and serially diluted with sterile DI to achieve concentrations of 1.0%, 0.75% and 0.5%.
Compliant with the ASTM procedure cited, for each challenge microorganism a 9.9 ml aliquot of the prepared 9-decenoic acid suspension was added to a sterile tube. A 0.1 ml aliquot of the standardized inoculum was added to the 9-decenoic acid solution representing the start of the test exposure. The inoculated 9-decenoic acid solution was immediately mixed thoroughly. The inoculated suspension was held at room temperature for 0.5, 2, 5, 7 and 10 minute exposure times for tests run at ˜pH 4. The pH 7 tests were held at room temperature for 0.5 and 2 minutes.
At each exposure sample time, a 1.0 ml aliquot of the inoculated 9-decenoic acid suspension was transferred to 9.0 ml of D/E Neutralizing Broth. Additional ten-fold serial dilutions were made in PBDW and plated in duplicate on TSA. All plates were incubated for 48 hours at 37±2° C. and visually examined for growth. The plates are enumerated, recorded and log kill determined for each time point.
The following study controls were conducted: culture purity, neutralizer sterility, initial suspension population, test population, neutralization verification and a negative control using isopropanol. Culture purity was verified by performing a streak plate for isolated colonies on the each culture used. All cultures were determined to be pure based on consistent colony morphology typical for the test organism. The neutralizer sterility was confirmed by no growth in an incubated sample.
The population of the initial and test culture were determined by serial dilution, plating and enumerating after incubation. The initial suspension were determined to be ≧10^4 CFU/ml. The test culture population was used for calculation of the log reduction achieved at each time point.
Neutralization effectiveness was verified by a filtration test. For each organism, four tubes were prepared with 9 ml D/E Neutralizing Broth and fewer than 100 CFU/ml of the organism. A 1.0 ml aliquot of prepared 9-decenoic acid was added to each tube. Immediately, the entire contents of 2 tubes were filtered through a filtration apparatus and rinsed with sterile diluent. The remaining 2 tubes were held at room temperature for 30 minutes and then the entire contents were filtered using the same procedure. The filters were aseptically transferred to TSA plates and incubated for 48 hours at 37±2° C. and visually examined for growth.
This control was inoculated, subcultured and incubated as in the test procedure.

[2] = tested on: Penecillium verrucosum, ATCC 18381; test: Preservative effectiveness, USP <51>; format: cell-based
Experimental: The effectiveness of 9-decenoic acid on Aspergillus and Penecillium which occasionally result in in-can spoilage of paint was determined using the protocol on preservative effectiveness found in the United States Pharmacopeia (USP), 25th Edition, 2002, USP <51>.
Stock cultures of the fungi Aspergillus flavus, ATCC 9170 and Penecillium verrucosum, ATCC 18381 were cultured onto Sabouraud Dextrose Agar (SDA) and incubated at 25-30° C. for at least 1 week. The spores were washed form the agar surface with sterile saline, filtered through sterile glass wool, enumerated and stored under refrigeration for no longer than thirty days. On the day of the test, the suspension was diluted to approximately 10^8 CFU/ml.
The 9-decenoic acid was diluted in the same manner as previously described to achieve, 0.25, 0.125, 0.0625, 0.03, 0.015, 0.0078 and 0.0039% and dispensed in 20 ml aliquots in sterile test tubes. For each concentration tested, a 0.1 ml aliquot of each inoculum was added to a final concentration of 10^5 to 10^6 CFU/ml. The tubes were incubated at room temperature and sampled on days 0, 1, 2, 4, 7, 14, 21 and 28.
At each sample point, 1.0 ml aliquots were withdrawn, serially diluted and plated in triplicate on SDA. The plates were incubated at 25-30° C. for 3-7 days. The colonies were counted and the average CFU/ml was calculated. Controls for purity, viability and sterility were performed as described previously.
According to the US Pharmacopoeia, a test compound is an effective preservative if the concentrations of viable fungi remain at or below the initial concentrations during the first fourteen days and after 28 days. According to this definition, 9-decenoic acid is an effective preservative against Aspergillus flavus and Penecillium verrucosum at concentrations as low at 0.078%. […] For A. flavus, 9-decenoic acid was fungicidal at 0.015% after 21 days and at day 0 at 0.03%.

## C=CCCCCCCCC(=O)O [9-decenoic acid]
[1]; 0.5%, pH 7, exposure 0.5 minutes
  Log reduction after exposure at pH 7: 0 log
[1]; 0.5%, pH 7, exposure 2 minutes
  Log reduction after exposure at pH 7: 0 log
[1]; 0.75%, pH 7, exposure 0.5 minutes
  Log reduction after exposure at pH 7: 0.83 log
[1]; 0.75%, pH 7, exposure 2 minutes
  Log reduction after exposure at pH 7: >4.2 log
[1]; 1.0%, pH 7, exposure 0.5 minutes
  Log reduction after exposure at pH 7: >4.2 log
[1]; 1.0%, pH 7, exposure 2 minutes
  Log reduction after exposure at pH 7: >4.2 log
[2]
  time after which fungicidal: 2 days
[2]; 0.0078%, exposure 0 days
  Log reduction of organisms after exposure: 0 log
[2]; 0.0078%, exposure 1 day
  Log reduction of organisms after exposure: 0.1 log
[2]; 0.0078%, exposure 2 days
  Log reduction of organisms after exposure: 0.8 log
[2]; 0.0078%, exposure 4 days
  Log reduction of organisms after exposure: 0.8 log
[2]; 0.0078%, exposure 7 days
  Log reduction of organisms after exposure: 0.8 log
[2]; 0.0078%, exposure 14 days
  Log reduction of organisms after exposure: 0.8 log
[2]; 0.0078%, exposure 21 days
  Log reduction of organisms after exposure: 1.8 log
[2]; 0.0078%, exposure 28 days
  Log reduction of organisms after exposure: 1.9 log
[2]; 0.015%, exposure 0 days
  Log reduction of organisms after exposure: 0.1 log
[2]; 0.015%, exposure 1 day
  Log reduction of organisms after exposure: 3.0 log
[2]; 0.015%, exposure 2 days
  Log reduction of organisms after exposure: 5.1 log
[2]; 0.015%, exposure 4 days
  Log reduction of organisms after exposure: 5.1 log
[2]; 0.015%, exposure 7 days
  Log reduction of organisms after exposure: 5.1 log
[2]; 0.015%, exposure 14 days
  Log reduction of organisms after exposure: 5.1 log
[2]; 0.015%, exposure 21 days
  Log reduction of organisms after exposure: 5.1 log
[2]; 0.015%, exposure 28 days
  Log reduction of organisms after exposure: 5.1 log
[2]; 0.03%, exposure 0 days
  Log reduction of organisms after exposure: 3.4 log
[2]; 0.03%, exposure 1 day
  Log reduction of organisms after exposure: 5.1 log
[2]; 0.03%, exposure 2 days
  Log reduction of organisms after exposure: 5.1 log
[2]; 0.03%, exposure 4 days
  Log reduction of organisms after exposure: 5.1 log
[2]; 0.03%, exposure 7 days
  Log reduction of organisms after exposure: 5.1 log
[2]; 0.03%, exposure 14 days
  Log reduction of organisms after exposure: 5.1 log
[2]; 0.03%, exposure 21 days
  Log reduction of organisms after exposure: 5.1 log
[2]; 0.03%, exposure 28 days
  Log reduction of organisms after exposure: 5.1 log
[2]; 0.0625%, exposure 0 days
  Log reduction of organisms after exposure: 4.3 log
[2]; 0.0625%, exposure 1 day
  Log reduction of organisms after exposure: 5.1 log
[2]; 0.0625%, exposure 2 days
  Log reduction of organisms after exposure: 5.1 log
[2]; 0.0625%, exposure 4 days
  Log reduction of organisms after exposure: 5.1 log
[2]; 0.0625%, exposure 7 days
  Log reduction of organisms after exposure: 5.1 log
[2]; 0.0625%, exposure 14 days
  Log reduction of organisms after exposure: 5.1 log
[2]; 0.0625%, exposure 21 days
  Log reduction of organisms after exposure: 5.1 log
[2]; 0.0625%, exposure 28 days
  Log reduction of organisms after exposure: 5.1 log
[2]; at 0.03%
  time after which fungicidal: 1 days
